Calls of active or inactive are those of the source. No cut-off for these calls is given here.
Experiments:
WI-38 [1] = experiment: Induction of F-actin aggregation in human WI38 cells after 24 hrs; type: functional, cell-based
[2] = molecular target: T1, Heat shock factor protein 1 (Mus musculus) (UniProt P38532); experiment: Induction of HSF1-mediated heat-shock protein 72 expression in mouse fibroblast with plasmid EGFP at 2 uM after overnight incubation by micro plate fluorometer
T1 sequence (whole entry): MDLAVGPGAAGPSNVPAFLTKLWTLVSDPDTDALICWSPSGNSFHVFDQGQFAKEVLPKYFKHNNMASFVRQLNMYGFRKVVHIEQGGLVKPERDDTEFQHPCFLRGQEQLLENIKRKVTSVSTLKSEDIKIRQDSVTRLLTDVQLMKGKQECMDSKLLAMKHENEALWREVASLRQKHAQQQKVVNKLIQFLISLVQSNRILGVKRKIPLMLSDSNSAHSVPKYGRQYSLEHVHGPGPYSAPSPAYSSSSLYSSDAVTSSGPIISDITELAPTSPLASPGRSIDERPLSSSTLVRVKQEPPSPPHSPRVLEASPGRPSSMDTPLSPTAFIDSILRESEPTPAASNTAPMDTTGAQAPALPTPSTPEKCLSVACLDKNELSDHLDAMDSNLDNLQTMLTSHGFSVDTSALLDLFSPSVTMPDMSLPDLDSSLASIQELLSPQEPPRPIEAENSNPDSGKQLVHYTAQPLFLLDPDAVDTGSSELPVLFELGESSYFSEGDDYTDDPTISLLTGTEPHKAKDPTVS

WI-38 [3] = experiment: Induction of F-actin aggregation in human WI38 cells after 4 hrs; type: functional, cell-based
[4] = Growth inhibition of human NCI60 cells; type: functional
MCF7 [5] = experiment: Cytotoxicity against human MCF7 cells by MTT assay; type: functional
MCF7 [6] = experiment: Cytotoxicity against human MCF7 cells after 72 hrs by MTT assay; type: functional, cell-based

Activity [2]	Structure (SMILES)	Activity (WI-38 [1])	Activity (WI-38 [3])	GI50 [4]	inhibition (INH) (MCF7 [5])	Activity (MCF7 [6])
–	CC1=C(CO)C(=O)O[C@@H]([C@@H](C)[C@H]2CC[C@H]3[C@@H]4C[C@H]5O[C@]56[C@@H](O)[C@@H](OS(=O)(=O)O)CC(=O)[C@]6(C)[C@H]4CC[C@]23C)C1	inactive	–	–	–	–
Active	CC1=C(CO)C(=O)O[C@@H]([C@@H](C)[C@H]2CC[C@H]3[C@@H]4C[C@H]5O[C@]56[C@@H](O)C=CC(=O)[C@]6(C)[C@H]4CC[C@]23C)C1 [WITHAFERIN A]	–	Active	620 nM	50%	Active

Reference: ChEMBL document CHEMBL1154521, “2,3-Dihydrowithaferin A-3beta-O-sulfate, a new potential prodrug of withaferin A from aeroponically grown Withania somnifera” (2009)
